# Reference: patent publication US10428082B2, “Triazole derivatives of melampomagnolide B and methods of use thereof” (BioVentures, LLC, priority 2016, dated 2019)
# What was measured:
# Format in all cases: cell-based, human
# TK-10 = assay: NCI 60 growth inhibition; conditions: TK-10, Renal Cancer, Table 2
# SF-539 = assay: NCI 60 growth inhibition; conditions: SF-539, CNS Cancer, Table 2
# KM12 = assay: NCI 60 growth inhibition; conditions: KM12, Colon Cancer, Table 2
# OVCAR-4 = assay: NCI 60 growth inhibition; conditions: OVCAR-4, Ovarian Cancer, Table 2
# HT29 = assay: NCI 60 growth inhibition; conditions: HT-29, Colon Cancer, Table 2
# UO-31 = assay: NCI 60 growth inhibition; conditions: UO-31, Renal Cancer, Table 2
# U251 = assay: NCI 60 growth inhibition; conditions: U251, CNS Cancer, Table 2
# A549/ATCC = assay: NCI 60 growth inhibition; conditions: Non-Small Cell Lung Cancer, Table 2
# OVCAR-8 = assay: NCI 60 growth inhibition; conditions: OVCAR-8, Ovarian Cancer, Table 2
# UACC-257 = assay: NCI 60 growth inhibition; conditions: UACC-257, Melanoma, Table 2
# SR = assay: NCI 60 growth inhibition; conditions: Leukemia, Table 2
# OVCAR-5 = assay: NCI 60 growth inhibition; conditions: OVCAR-5, Ovarian Cancer, Table 2
# ACHN = assay: NCI 60 growth inhibition; conditions: Renal Cancer, Table 2
# SK-MEL-5 = assay: NCI 60 growth inhibition; conditions: SK-MEL-5, Melanoma, Table 2
# A498 = assay: NCI 60 growth inhibition; conditions: A498, Renal Cancer, Table 2
# HCT-15 = assay: NCI 60 growth inhibition; conditions: HCT-15, Colon Cancer, Table 2
# SNB-19 = assay: NCI 60 growth inhibition; conditions: SNB-19, CNS Cancer, Table 2
# SNB-75 = assay: NCI 60 growth inhibition; conditions: SNB-75, CNS Cancer, Table 2
# BT-549 = assay: NCI 60 growth inhibition; conditions: BT-549, Breast Cancer, Table 2
# SF-295 = assay: NCI 60 growth inhibition; conditions: SF-295, CNS Cancer, Table 2
# NCI-H522 = assay: NCI 60 growth inhibition; conditions: NCI-H522, Non-Small Cell Lung Cancer, Table 2
# MCF7 = assay: NCI 60 growth inhibition; conditions: MCF7, Breast Cancer, Table 2
# M14 = assay: NCI 60 growth inhibition; conditions: M14, Melanoma, Table 2
# SN12C = assay: NCI 60 growth inhibition; conditions: Renal Cancer, Table 2
# LOX IMVI = assay: NCI 60 growth inhibition; conditions: Melanoma, Table 2
# [1] = system: primary AML cell line AML1; assay: Anti-leukemic activity, Annexin V/7-AAD flow cytometry; conditions: Homo sapiens, AML1, 24 h, 24 h of drug exposure; read-out: AML#1 (EC50)
# Experimental: (§1) The newly synthesized triazole derivatives of melampomagnolide B were screened for anti-leukemic activity against M9 ENL1 and primary AML cell lines; the latter were obtained with informed consent from human patients. Evaluations were performed after 24 h of drug exposure using flow cytometric analysis by labeling with Annexin V and 7-aminoactinomycin D (7-AAD) to delineate apoptotic cell populations. In all experiments PTL was included as a reference control.
# [2] = system: primary AML cell line AML2; assay: as above; conditions: Homo sapiens, 24 h, 24 h of drug exposure; read-out: AML#2 (EC50)
# Experimental: as §1
structure (smiles),measurement,setting,value
"C=C1C(=O)O[C@H]2[C@H]1CC/C(Cn1cc(-c3ccc(OC)cc3)nn1)=C\CC[C@@]1(C)O[C@@H]21 [JVM 4-24, (1aR,7aS,10aS,10bS,E)-5((4-(4-Methoxyphenyl)-1H-1,2,3-triazol-1-yl)methyl)-1a-methyl-8-methylene-2,3,6,7,7a,8,10a,10b-octahydrooxireno[2′,3′:9,10]cyclodeca[1,2-b]furan-9(1aH)-one]",GI50,TK-10; Homo sapiens,1420 nM
same,GI50,SF-539; Homo sapiens,340 nM
same,GI50,KM12; Homo sapiens,3510 nM
same,GI50,OVCAR-4; Homo sapiens,1520 nM
same,GI50,HT29; Homo sapiens,1230 nM
same,GI50,UO-31; Homo sapiens,1270 nM
same,GI50,"U251; Homo sapiens, U-251",9450 nM
same,GI50,A549/ATCC; Homo sapiens,10900 nM
same,GI50,OVCAR-8; Homo sapiens,2590 nM
same,GI50,UACC-257; Homo sapiens,1780 nM
same,GI50,SR; Homo sapiens,250 nM
same,GI50,OVCAR-5; Homo sapiens,1710 nM
same,GI50,ACHN; Homo sapiens,290 nM
same,GI50,SK-MEL-5; Homo sapiens,2100 nM
same,GI50,A498; Homo sapiens,2350 nM
same,GI50,HCT-15; Homo sapiens,330 nM
same,GI50,SNB-19; Homo sapiens,6.92 µM
same,GI50,SNB-75; Homo sapiens,1470 nM
same,GI50,BT-549; Homo sapiens,1310 nM
same,GI50,SF-295; Homo sapiens,11 µM
same,GI50,NCI-H522; Homo sapiens,380 nM
same,GI50,MCF7; Homo sapiens,420 nM
same,GI50,M14; Homo sapiens,1300 nM
same,GI50,SN12C; Homo sapiens,1960 nM
same,GI50,LOX IMVI; Homo sapiens,1160 nM
same,EC50,[1],2000 nM
same,EC50,[2],2500 nM
C=C1C(=O)O[C@H]2[C@H]1CC/C(Cn1cc(-c3ccc(F)cc3)nn1)=C\CC[C@@]1(C)O[C@@H]21 [JVM 4-26],GI50,TK-10; Homo sapiens,1240 nM
same,GI50,SF-539; Homo sapiens,270 nM
same,GI50,KM12; Homo sapiens,1700 nM
same,GI50,OVCAR-4; Homo sapiens,1290 nM
same,GI50,HT29; Homo sapiens,690 nM
same,GI50,UO-31; Homo sapiens,1220 nM
same,GI50,"U251; Homo sapiens, U-251",2020 nM
same,GI50,A549/ATCC; Homo sapiens,3370 nM
same,GI50,OVCAR-8; Homo sapiens,1660 nM
same,GI50,UACC-257; Homo sapiens,1470 nM
same,GI50,SR; Homo sapiens,250 nM
same,GI50,OVCAR-5; Homo sapiens,1470 nM
same,GI50,ACHN; Homo sapiens,180 nM
same,GI50,SK-MEL-5; Homo sapiens,1740 nM
same,GI50,A498; Homo sapiens,1820 nM
same,GI50,HCT-15; Homo sapiens,280 nM
same,GI50,SNB-19; Homo sapiens,3.39 µM
same,GI50,SNB-75; Homo sapiens,1250 nM
same,GI50,BT-549; Homo sapiens,830 nM
same,GI50,SF-295; Homo sapiens,5.73 µM
same,GI50,NCI-H522; Homo sapiens,250 nM
same,GI50,MCF7; Homo sapiens,350 nM
same,GI50,M14; Homo sapiens,940 nM
same,GI50,SN12C; Homo sapiens,1640 nM
same,GI50,LOX IMVI; Homo sapiens,900 nM
same,EC50,[1],1100 nM
same,EC50,[2],1900 nM
C=C1C(=O)O[C@H]2[C@H]1CC/C(Cn1cc(-c3cc(C)c(C)cc3C)nn1)=C\CC[C@@]1(C)O[C@@H]21 [JVM 4-50],GI50,TK-10,1460 nM
same,GI50,SF-539,1160 nM
same,GI50,KM12,2310 nM
same,GI50,OVCAR-4,700 nM
same,GI50,HT29,500 nM
same,GI50,UO-31,520 nM
same,GI50,U251,1530 nM
same,GI50,A549/ATCC,1730 nM
same,GI50,OVCAR-8,920 nM
same,GI50,UACC-257,1290 nM
same,GI50,SR,1260 nM
same,GI50,OVCAR-5,1740 nM
same,GI50,ACHN,1070 nM
same,GI50,SK-MEL-5,1660 nM
same,GI50,A498,1040 nM
same,GI50,HCT-15,200 nM
same,GI50,SNB-19,3.9 µM
same,GI50,SNB-75,520 nM
same,GI50,BT-549,750 nM
same,GI50,SF-295,6.44 µM
same,GI50,NCI-H522,280 nM
same,GI50,MCF7,430 nM
same,GI50,M14,1500 nM
same,GI50,SN12C,1490 nM
same,GI50,LOX IMVI,720 nM
"C=C1C(=O)O[C@H]2[C@H]1CC/C(Cn1cc(-c3cccc(Cl)c3)nn1)=C\CC[C@@]1(C)O[C@@H]21 [JVM 4-25, (1aR,7aS,10aS,10bS,E)-5((4-(3-Chlorophenyl)-1H-1,2,3-triazol-1-yl)methyl)-1a-methyl-8-methylene-2,3,6,7,7a,8,10a,10b-octahydrooxireno[2′,3′:9,10]cyclodeca[1,2-b]furan-9(1aH)-one]",GI50,TK-10; Homo sapiens,990 nM
same,GI50,SF-539; Homo sapiens,250 nM
same,GI50,KM12; Homo sapiens,1780 nM
same,GI50,OVCAR-4; Homo sapiens,1090 nM
same,GI50,HT29; Homo sapiens,510 nM
same,GI50,UO-31; Homo sapiens,1080 nM
same,GI50,"U251; Homo sapiens, U-251",1610 nM
same,GI50,A549/ATCC; Homo sapiens,1790 nM
same,GI50,OVCAR-8; Homo sapiens,1310 nM
same,GI50,UACC-257; Homo sapiens,1420 nM
same,GI50,SR; Homo sapiens,230 nM
same,GI50,OVCAR-5; Homo sapiens,1210 nM
same,GI50,ACHN; Homo sapiens,180 nM
same,GI50,SK-MEL-5; Homo sapiens,1700 nM
same,GI50,A498; Homo sapiens,1520 nM
same,GI50,HCT-15; Homo sapiens,190 nM
same,GI50,SNB-19; Homo sapiens,2.4 µM
same,GI50,SNB-75; Homo sapiens,1160 nM
same,GI50,BT-549; Homo sapiens,770 nM
same,GI50,SF-295; Homo sapiens,3.41 µM
same,GI50,NCI-H522; Homo sapiens,290 nM
same,GI50,MCF7; Homo sapiens,310 nM
same,GI50,M14; Homo sapiens,790 nM
same,GI50,SN12C; Homo sapiens,1400 nM
same,GI50,LOX IMVI; Homo sapiens,280 nM
same,EC50,[1],1000 nM
same,EC50,[2],1700 nM
